3 compounds from patent publication US20040132121A1, “Method of identifying antibacterial compounds” (priority 2000, published 2004) can be followed below.

A word on the IC50: it is the concentration at which inhibition is half-maximal. A word on the inhibition: it is how much of the control response was suppressed.

Entries after “also recorded” stand apart in the source; their conditions may differ.

Assay [1] addresses binding of E. coli δ to E. coli β (Escherichia coli, UniProt P0A988). Put plainly: biochemical. The settings on record: for IC50: IC50 δ-binding, Table 21.
Assay [2] addresses T1, binding of E. coli α to E. coli β (Escherichia coli, UniProt P0A988).
T1 construct: made in house
Nature of the assay: biochemical. The settings on record: Table 21; Molsci (CMS) compounds, buffer BB37 (10 mM MnCl2); read-out: IC50 α-binding. The protocol: Recombinantly expressed wild type E. coli α subunit was purified and coated onto 96 well microtitre plates (Falcon flexible plates, Becton Dickinson) at 20 μg/ml in 100 mM Na2CO3, pH9.5 (50 μl/well, 4° C. overnight or 2 h, RT (RT). The plates were washed in WB3 (20 mM Tris (pH 7.5), 0.1 mM EDTA containing 0.05% v/v Tween 20). This buffer was used in all wash steps through out the assay. The plates were then blocked with “blotto” (5% skim milk powder in WB3, 100 μl/well, RT) until required. Immediately before use the plates were washed.
The purified synthetic peptides and β subunit were diluted in BB14 (20 mM Tris, pH 7.5, 10 mM MgCl2, 0.1 mM EDTA). Purified synthetic peptides with concentrations of 9.3-300 and 1000 μg/ml were allowed to complex with purified wild type β subunit (5 μg/ml) in a 96 well microtitre plate (Sarsted, Adelaide, Australia) pre-treated with “blotto” (30 min, RT). The reaction volume was 120 μl. The β subunit also was incubated in the absence of peptide or in the presence of the α subunit at 76.5 (μg/ml in BB14. All samples were incubated for 1 h (RT). Two 50 μl samples were transferred from each well to a corresponding well of the washed and “blocked” α subunit coated plates, and further incubated for 30 min (RT).
The plates were washed and treated with rabbit serum raised to the β subunit. The anti-serum was diluted 1:1000 in WB3 containing 10% “blotto”, dispensed at 50 μl/well and incubated for 12 min (RT). The plates were washed again and treated with sheep anti-rabbit Ig-HRP conjugate (Silenus, Melbourne, Australia) diluted 1:1000 in WB3 containing 10% “blotto” (50 μl/well). The plate was incubated for 12 min (RT). After a final washing step, 1 mM 2,2′-azino-bis (3-ethylbenzthiazoline-6-sulfonic acid) was added (110 μl/well). Colour development was assessed at 405 nm using a plate reader (Multiskan Ascent, Labsystems, Sweden).
For the CMS compounds in the of α:β assays, buffer BB37 replaced buffer BB14. Buffer BB37 contains 10 mM MnCl2 instead of the 10 mM MgCl2 used in BB14. The buffer conditions were changed to improve the reproducibility and sensitivity of the α:β binding assay.
Compounds from the CMS library were dissolved in DMSO at 1 mg/ml in a 96 well tray format. A corresponding slave plate was prepared by adding 115 μl of BB37. Dissolved compounds (5 μl) from the master plate was added to the corresponding well in slave plates giving a final concentration of 41.7 μg/ml.
Compounds were assayed for inhibition of the binding of E. coli α to E. coli β as described in Example 13.
Peptides were assayed for inhibition of the binding of E. coli α to E. coli β as described in Example 6 with the exception that buffer BB37 replaced buffer BB14 in the alpha:beta binding assay. As noted above, BB37 contains 10 mM MnCl2 instead of 10 mM MgCl2 used in BB14. Again, the change in buffer conditions was made to improve the reproducibility and sensitivity of the α:β binding assay.

Assay [3] relates to Enterococcus faecalis ATCC 33186. Put plainly: Bacterial growth inhibition screen (A620). The assay is classed as cell-based. Particulars: overnight 35° C.; for inhibition at 50 µg/mL: ATCC33186, compound 50 μg/ml, read-out: inhibition of growth of E. faecalis. How it is done:
(§1) Compounds with high similarity scores, or at the intersection of the results of searches using a number of different approaches, and available from the NCI or Molecular Science libraries were obtained and screened for inhibition of growth of E. coli ATCC 35218, Klebsiella pneumoniae ATCC 13885, Pseudomonas aeruginosa ATCC 27853, Staphylococcus aureus ATCC 25923 and Enterococcus faecalis ATCC 33186 as follows. Compounds were supplied dissolved in DMSO at 1 mg/ml in a 96 well tray format. Six corresponding slave plates were prepared by adding 85 μl of sterile water, and 100 μl of two times Muller Hinton broth. Dissolved compounds (5 μl) from the master plate was added to the corresponding well in slave plates giving a final concentration of 50 μg/ml.
(§2) Plates were then transferred to a PC2 Laboratory for inoculation with selected bacterial strains. The strains are freshly grown and diluted in normal saline to 0.5 McFarland Standard (NCCLS Performance standard for Dilution Antimicrobial Susceptibility Testing M7-A4 January 1997). This solution was further diluted 1:10 in normal saline to form the bacterial inoculation culture. 10 μl was used to inoculate each well. Plates were covered and placed in a 35° C. incubator over night before A620 was determined. Tetracycline was used as a standard antimicrobial compound.

Assay [4] deals with Staphylococcus aureus ATCC 25923. Nature of the assay: Bacterial growth inhibition screen (A620). The assay is classed as cell-based. The settings on record: overnight 35° C.; for inhibition at 50 µg/mL: ATCC25923, compound 50 μg/ml, read-out: inhibition of growth of S. aureus. The protocol:
as §1, §2

The test system of assay [5] is Pseudomonas aeruginosa ATCC 27853. Nature of the assay: Bacterial growth inhibition screen (A620). The assay is classed as cell-based. Particulars: ATCC27853, test conc 35 μg/ml, overnight 35° C., read-out: percent growth inhibition P. aeruginosa. How it is done: as §1, §2
For assay [6], the system named is Klebsiella pneumoniae ATCC 13885. Nature of the assay: Bacterial growth inhibition screen (A620). The assay is classed as cell-based. The settings on record: ATCC13885, test conc 35 μg/ml, overnight 35° C., read-out: percent growth inhibition K. pneumoniae. The protocol:
as §1, §2

In a further assay the test system is E. coli ATCC 35218. Nature of the assay: Bacterial growth inhibition screen (A620). The assay is classed as cell-based. Particulars: Escherichia coli, ATCC35218, test conc 35 μg/ml, overnight 35° C., read-out: percent growth inhibition E. coli. The protocol:
as §1, §2

binding of E. coli δ to E. coli β, sequence (P0A988 whole entry): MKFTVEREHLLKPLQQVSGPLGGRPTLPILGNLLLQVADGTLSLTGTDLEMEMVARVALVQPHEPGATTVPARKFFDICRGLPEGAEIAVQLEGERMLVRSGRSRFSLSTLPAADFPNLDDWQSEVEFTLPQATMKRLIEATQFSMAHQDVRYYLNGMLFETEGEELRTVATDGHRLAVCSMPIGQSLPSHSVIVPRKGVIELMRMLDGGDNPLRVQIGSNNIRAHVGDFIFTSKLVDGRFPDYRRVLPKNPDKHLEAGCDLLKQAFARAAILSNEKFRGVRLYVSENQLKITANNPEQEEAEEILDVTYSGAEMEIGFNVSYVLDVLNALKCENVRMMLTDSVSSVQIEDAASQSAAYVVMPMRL
T1 sequence (P0A988 whole entry): as above

Consider `CCC/C(=N\OC/C(Cl)=C/c1ccc(Cl)cc1)C1C(=O)CC(C)(C)CC1=O` [AOC-07877], for which the figures for the IC50 in assay [1] and in assay [2] were 90 µM and 270 µM, respectively. Further, the “inhibition of the binding of δ to β” value in assay [1] (plate binding assay as in Example 6) is listed as “significantly inhibited; also recorded: significant inhibitory activity”. Moreover, the inhibition at 50 µg/mL in assay [3] and in assay [4] was greater than 50% each time.
Regarding `CCC/C(=N\OC/C(C)=C(\O)c1ccc(C)cc1)C1C(=O)CC(CC)(CC)CC1=O` [AOC-08944], the half-inhibitory concentration (IC50) in assay [1] and in assay [2] was greater than 300 µM in each case. Further, the inhibition at 50 µg/mL in assay [3] and in assay [4] was greater than 50% in each case.
Take `CCC/C(=N\OC/C(Cl)=C/c1ccc(Cl)cc1)C1C(=O)CC(C)(C)CC1=O` [Peptide 07877]: the inhibition at 35 µg/mL in assay [5] stood at 3.9%; in assay [3] (ATCC33186, test conc 35 μg/ml, A620, read-out: percent growth inhibition E. faecalis), 59.6%; in assay [6], 8.3%; in the assay with E. coli ATCC 35218 it was 17.6%; in assay [4] (ATCC25923, test conc 35 μg/ml, A620, read-out: percent growth inhibition S. aureus), 84.7%.
